What was measured:
LoVo = assay: Cell proliferation (cell count by microscopy), LoVo; format: cell-based; settings: Homo sapiens; LoVo (KRAS), 96 h treatment, single agent tested 13 nM-10 μM; 50% of cell counts relative to DMSO
Text: (§1) The debris counts were subtracted from raw nuclei counts.
(§2) The model input were inhibition values per drug dose: […]

GP2d = assay: Cell proliferation (cell count by microscopy), GP2d; format: cell-based; settings: GP2d (KRAS, PIK3CA), 72 h treatment, single agent tested 13 nM-10 μM; 50% of cell counts relative to DMSO
Text: as §1, §2

LS-180 = assay: Cell proliferation (cell count by microscopy), LS-180; format: cell-based; settings: Homo sapiens, LS180; LS-180 (KRAS, PIK3CA), 72 h treatment, single agent tested 13 nM-10 μM; 50% of cell counts relative to DMSO
Text: as §1, §2

DLD-1 = assay: Cell proliferation (cell count by microscopy), DLD-1; format: cell-based; settings: Homo sapiens; DLD-1 (KRAS, PIK3CA), 72 h treatment, single agent tested 13 nM-10 μM; 50% of cell counts relative to DMSO
Text: as §1, §2

COLO-320 = assay: Cell proliferation (cell count by microscopy), COLO-320; format: cell-based; settings: Homo sapiens; COLO-320 (no driver mutation listed), 72 h treatment, single agent tested 13 nM-10 μM; 50% of cell counts relative to DMSO
Text: as §1, §2

SW837 = assay: Cell proliferation (cell count by microscopy), SW837; format: cell-based; settings: Homo sapiens; SW837 (KRAS), 72 h treatment, single agent tested 13 nM-10 μM; 50% of cell counts relative to DMSO
Text: as §1, §2

SW480 = assay: Cell proliferation (cell count by microscopy), SW480; format: cell-based; settings: Homo sapiens; SW480 (KRAS), 72 h treatment, single agent tested 13 nM-10 μM; 50% of cell counts relative to DMSO
Text: as §1, §2

HCT-116 = assay: Cell proliferation (cell count by microscopy), HCT-116; format: cell-based; settings: Homo sapiens; HCT-116 (KRAS, PIK3CA), 72 h treatment, single agent tested 13 nM-10 μM; 50% of cell counts relative to DMSO
Text: as §1, §2

LIM2551 = assay: Cell proliferation (cell count by microscopy), LIM2551; format: cell-based; settings: LIM2551 (BRAF, PIK3CA), 72 h treatment, single agent tested 13 nM-10 μM; 50% of cell counts relative to DMSO
Text: as §1, §2

COLO-205 = assay: Cell proliferation (cell count by microscopy), COLO-205; format: cell-based; settings: Homo sapiens; COLO-205 (BRAF), 72 h treatment, single agent tested 13 nM-10 μM; 50% of cell counts relative to DMSO
Text: as §1, §2

HT-29 = assay: Cell proliferation (cell count by microscopy), HT-29; format: cell-based; settings: Homo sapiens; HT-29 (BRAF, PIK3CA), 72 h treatment, single agent tested 13 nM-10 μM; 50% of cell counts relative to DMSO
Text: as §1, §2

RKO = assay: Cell proliferation (cell count by microscopy), RKO; format: cell-based; settings: Homo sapiens; RKO (BRAF, PIK3CA), 72 h treatment, single agent tested 13 nM-10 μM; 50% of cell counts relative to DMSO
Text: as §1, §2

OUMS-23 = assay: Cell proliferation (cell count by microscopy), OUMS-23; format: cell-based; settings: OUMS-23 (BRAF), 72 h treatment, single agent tested 13 nM-10 μM; 50% of cell counts relative to DMSO
Text: as §1, §2

LS411N = assay: Cell proliferation (cell count by microscopy), LS411N; format: cell-based; settings: Homo sapiens, LS-411N; LS411N (BRAF), 72 h treatment, single agent tested 13 nM-10 μM; 50% of cell counts relative to DMSO
Text: as §1, §2

[1] = test system: 15 colorectal cancer cell lines; settings: single agent, 13 nM-10 μM
Procedure: The compounds were dissolved in 100% DMSO (Sigma, Catalog number D2650) at concentrations of 20 mM and stored at -20° C. until use.
All cell line media were supplemented with 10% FBS (HyClone, Catalog number SH30071.03).
Cell lines were cultured in 37° C. and 5% CO2 incubator and expanded in T-75 flasks. In all cases cells were thawed from frozen stocks, expanded through ≤1 passage using 1:3 dilutions, counted and assessed for viability using a ViCell counter (Beckman-Coulter) prior to plating. […] All cell lines were determined to be free of mycoplasma contamination as determined by a PCR detection methodology performed at Idexx Radil (Columbia, Mo., USA) and correctly identified by detection of a panel of SNPs.
The compound's effect on cell proliferation was calculated from the cell counts of the treatments relative to the cell counts of the negative control (DMSO), in FIG. 1 denoted as ‘Normalized cell count’ (=‘xnorm’) on the y-axis. […] The model input were inhibition values per drug dose:
I=1-xnorm • I: Inhibition • xnorm: normalized cell count (median of three replicates) […]
C=ΣConc(Idata*(Idata−Imodel)) • Idata: measured inhibition • Imodel: inhibition according to HSA null hypothesis
Robust combination z-scores (zC) were calculated as the ratio of the treatments' combination scores C and the median absolute deviation (mad) of non-interacting combinations: […]

IC50 (LoVo): 0.716 µM | IC50 (DLD-1): 7.06 µM | IC50 (COLO-320): 6.92 µM | IC50 (SW837): > 10 µM | IC50 (SW480): > 10 µM | IC50 (HCT-116): > 10 µM | IC50 (COLO-205): > 10 µM | IC50 (HT-29): > 10 µM | cell lines in which IC50s were achieved for the concentration range tested [1]: 5/15
SMILES: C#Cc1cccc(Nc2ncnc3cc(OCCOC)c(OCCOC)cc23)c1 [Erlotinib, N-(3-ethynylphenyl)-6,7-bis(2-methoxyethoxy)quinazolin-4-amine]
IC50 (GP2d): 8.86 µM | IC50 (LS-180): > 10 µM | IC50 (LIM2551): > 10 µM | IC50 (RKO): > 10 µM | IC50 (OUMS-23): > 10 µM | IC50 (LS411N): > 10 µM

— patent US20180243304A1, “PHARMACEUTICAL COMBINATIONS COMPRISING (A) THE CYCLIN DEPENDENT KINASE 4/6 (CDK4/6) INHIBITOR LEE011 (=RIBOCICLIB), AND (B) THE EPIDERMAL GROWTH FACTOR RECEPTOR (EGFR) INHIBITOR ERLOTINIB, FOR THE TREATMENT OR PREVENTION OF CANCER” (Novartis AG, priority 2015, published 2018)
